Results reported in patent US10604514B2, “6-(5-membered heteroaryl)isoquinolin-3-yl carboxamides and preparation and use thereof” (Samumed, LLC, priority 2017, dated 2020).
Like-named read-outs stand apart in the source and are kept apart here.

Tests used:
[1] = system: Wnt activity (Sp5-Luc reporter in SW480 colon carcinoma cells); assay: Wnt activity screening assay (Sp5-Luc reporter gene assay); assay type: cell-based, human; conditions: Homo sapiens; for EC50: Sp5-Luc reporter, SW480 cells, 36 to 48 hours; for inhibition at 10 µM: SW480, read-out: percent inhibition at 10 μM
Outline: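 SW480 cells stably carrying an Sp5 promoter (eight TCF/LEF sites)-firefly luciferase reporter were plated in DMEM with 1% FBS and treated with a 10-point, 1:3 dilution series from 10 μM (0.1% DMSO) for 36 to 48 h at 37° C. Luminescence was normalized to DMSO controls, and EC50 came from four-parameter nonlinear regression.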

GSK3β kinase = GSK3β kinase (Homo sapiens (Human), UniProt P49841); assay: GSK3β kinase assay (Ser/Thr 09 peptide Z-lyte, FRET); assay type: biochemical; conditions: method text calls the value IC50;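 also: Coumarin/fluorescein emission ratio converted to percent phosphorylation against unphosphorylated (0%) and phosphorylated (100%) controls, 1 h compound incubation at room temperature, 11-point threefold dilutions from 10 µM, run in duplicate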
Method: Representative compounds were screened using the assay procedure for GSK30 kinase activity as described below.
Each compound is dissolved in DMSO as a 10 mM stock and used to prepare compound source plates. Serial dilution (1:3, 11-point dose-response curves from 10 M to 0.0003 μM) and compound transfer was performed using the ECHO 550 (Labcyte, Sunnyvale, Calif.) into 1536-well black-walled round bottom plates (Corning).
This is a non-radioactive assay using fluorescence resonance energy transfer (FRET) between coumarin and fluorescein to detect kinase activity which is represented as ratio of coumarin emission/fluorescein emission.
The mixture is allowed to incubate with the representative compounds for one hour at room temperature. All reactions were performed in duplicate. Unphosphorylated (“0% Control”) and phosphorylated (“100% control”) forms of Ser/Thr 18 serve as control reactions.
After incubation, diluted Development Buffer is added to the reaction and allowed to further incubate for one hour at room temperature.
The percent phosphorylation is then calculated using the following formula: [1−((Em ratio×F100%)−C100%)/((C0%−C100%)+(Em ratio×(F100%−F0%)))].
Dose-response curves are generated and inhibitory concentration (IC50) values are calculated using non-linear regression curve fit in the Dotmatics' Studies Software (Bishops Stortford, UK).

[2] = system: Tau phosphorylation at Ser396 (pSer396), SH-SY5Y cells; assay: Tau phosphorylation at Ser396 (pSer396) in SH-SY5Y cells, ELISA/western blot; assay type: cell-based, human; conditions: Homo sapiens; SH-SY5Y cells, overnight (16-18 h); read-out: pSer396 Tau EC50;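 also: cell lysates probed for reduced Tau pSer396 via ELISA (colorimetric) or western blot (chemiluminescence), both with one shared pSer396 antibody, EC50 for lowering phosphorylation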
[3] = system: SW480 colon carcinoma cells; assay: Cell viability assay (CellTiter-Glo) in SW480 cells; assay type: cell-based, human; conditions: Homo sapiens; for EC50: 96 h, cell viability, SW480 cells, four days, CellTiter-Glo;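 as to all read-outs here: SW480 cells stably carrying an Sp5-luciferase TCF/LEF reporter, luminescent ATP signal as viability measure, DMSO-treated cells as control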
[4] = system: LL29 cells (primary human fibroblasts derived from IPF patients), α-smooth muscle actin; assay: Inhibition of fibrotic process: αSMA in TGF-β1-treated primary human fibroblasts from IPF patients (LL29 cells); assay type: cell-based; conditions: Homo sapiens, Fibroblast, 96 h; % αSMA-positive LL29 cells, TGF-β1 20 ng/mL, 4 days
Outline: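 IPF-patient lung fibroblasts (LL29) were stimulated with TGF-β1 (20 ng/mL) in 1% FBS medium with compound (11-point 1:2 series, 0.1% DMSO) for 4 days at 37 °C. Fixed cells were immunostained for αSMA and imaged, excluding SYTOX-positive dead cells. The % αSMA-positive cells was normalized to TGF-β1/DMSO control wells.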

IL-6 = IL-6 inhibition in LPS-stimulated human peripheral blood mononuclear cells (HTRF); assay type: cell-based; conditions: Homo sapiens, PBMC; for EC50: IL-6, LPS-stimulated huPBMCs, HTRF; for inhibition at 10 µM: read-out: percent value in parentheses below EC50 >10
Outline: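 Fresh human PBMCs (5000 cells/well, 1% FBS RPMI) preincubated with compound (10-point 1:3 series from 10 μM, 0.25% DMSO) 2 h at 37 °C, then stimulated with 50 ng/mL E. coli LPS for 22 h. IL-6 by HTRF 665/620 ratio; DMSO-normalized, EC50 from 4-parameter fit.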

DYRK1A kinase = DYRK1A kinase (Homo sapiens (Human), UniProt Q13627); assay: DYRK1A kinase assay (Ser/Thr 18 peptide Z-lyte, FRET)
[5] = DYRK1A kinase, method text calls the value IC50

Sequence of GSK3β kinase (P49841 whole entry): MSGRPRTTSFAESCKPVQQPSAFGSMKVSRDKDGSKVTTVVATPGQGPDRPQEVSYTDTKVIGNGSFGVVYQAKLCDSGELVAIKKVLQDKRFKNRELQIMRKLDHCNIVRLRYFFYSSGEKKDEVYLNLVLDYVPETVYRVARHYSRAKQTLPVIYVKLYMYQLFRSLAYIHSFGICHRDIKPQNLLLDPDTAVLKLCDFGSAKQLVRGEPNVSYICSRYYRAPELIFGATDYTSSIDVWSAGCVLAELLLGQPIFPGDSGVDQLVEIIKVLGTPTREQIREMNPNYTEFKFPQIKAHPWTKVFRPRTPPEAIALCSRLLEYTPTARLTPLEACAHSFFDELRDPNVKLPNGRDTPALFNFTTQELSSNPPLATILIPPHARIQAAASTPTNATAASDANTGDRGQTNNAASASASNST

Compound	EC50 [1] [nM]	EC50 (GSK3β kinase) [nM]	EC50 [2] [nM]	EC50 [3] [nM]	EC50 (IL-6) [nM]	EC50 (DYRK1A kinase) [nM]	EC50 (DYRK1A kinase; [5]) [nM]	EC50 [4] [nM]	inhibition at 10 µM [1] [%]	inhibition at 10 µM (IL-6) [%]	inhibition at 10 µM ([3]; SW480, read-out: percent inhibition at 10 μM) [%]
Cc1nnc(-c2ccc3cnc(NC(=O)C4CCN(C)CC4)cc3c2)s1 [Compound 46, 1-Methyl-N-(6-(5-methyl-1,3,4-thiadiazol-2-yl)isoquinolin-3-yl)piperidine-4-carboxamide]	730	23	91	1040	3760	6	–	640	–	–	–
Cc1ncc(-c2ccc3cnc(NC(=O)C4CCN(C)CC4)cc3c2)o1 [Compound 47, 1-Methyl-N-(6-(2-methyloxazol-5-yl)isoquinolin-3-yl)piperidine-4-carboxamide]	917	65	174	751	945	–	6	262	–	–	–
COC1CCN(CC(=O)Nc2cc3cc(-c4cnc(C)o4)ccc3cn2)CC1 [Compound 48, 2-(4-Methoxypiperidin-1-yl)-N-(6-(2-methyloxazol-5-yl)isoquinolin-3-yl) acetamide]	820	54	359	3890	9070	–	20	718	–	–	–
COC1CCN(CC(=O)Nc2cc3cc(-c4nnc(C)s4)ccc3cn2)CC1 [Compound 49, 2-(4-Methoxypiperidin-1-yl)-N-(6-(5-methyl-1,3,4-thiadiazol-2-yl)isoquinolin-3-yl)acetamide]	> 10000	6	135	2900	> 10000	–	21	643	32.9	9	–
Cc1ncc(-c2ccc3cnc(NC(=O)N4CCC(N5CCOCC5)CC4)cc3c2)o1 [Compound 50, N-(6-(2-Methyloxazol-5-yl)isoquinolin-3-yl)-4-morpholinopiperidine-1-carboxamide]	28	218	779	> 10000	9200	–	20	1470	–	–	43
Cc1ncc(-c2ccc3cnc(NC(=O)N4CC[C@H](N)[C@@H](F)C4)cc3c2)o1 [Compound 51, (3S,4S)-4-Amino-3-fluoro-N-(6-(2-methyloxazol-5-yl)isoquinolin-3-yl) piperidine-1-carboxamide]	36	349	656	3940	3240	–	14	2490	–	–	–
Cc1ncc(-c2ccc3cnc(NC(=O)N4CCC(N(C)CC(F)F)CC4)cc3c2)o1 [Compound 52, 4-((2,2-Difluoroethyl)(methyl)amino)-N-(6-(2-methyloxazol-5-yl)isoquinolin-3-yl)piperidine-1-carboxamide]	923	156	1100	3970	3700	–	9	1730	–	–	–
Cc1ncc(-c2ccc3cnc(NC(=O)N4CC[C@H](NC(C)C)[C@@H](F)C4)cc3c2)o1 [Compound 53, (3 S,4S)-3-Fluoro-4-(isopropylamino)-N-(6-(2-methyloxazol-5-yl)isoquinolin-3-yl)piperidine-1-carboxamide]	2810	366	2300	4510	9360	–	38	1580	–	–	–
COC1CCN(CC(=O)Nc2cc3cc(-c4cn(C)nn4)ccc3cn2)CC1 [Compound 54, 2-(4-Methoxypiperidin-1-yl)-N-(6-(1-methyl-1H-1,2,3-triazol-4-yl)isoquinolin-3-yl)acetamide]	943	6	97	3210	9630	–	7	412	–	–	–
Cc1ncc(-c2cc3cc(NC(=O)[C@H]4CC[C@H](N5CCOCC5)CC4)ncc3cc2F)o1 [Compound 55, trans-N-(7-Fluoro-6-(2-methyloxazol-5-yl)isoquinolin-3-yl)-4-morpholinocyclohexane-1-carboxamide]	3700	88	178	1300	> 10000	–	6	678	–	18.3	–

The next lines start with results.

EC50 [1] [nM]	EC50 (GSK3β kinase) [nM]	EC50 [2] [nM]	EC50 [3] [nM]	EC50 (IL-6) [nM]	EC50 (DYRK1A kinase) [nM]	EC50 (DYRK1A kinase; [5]) [nM]	Compound	EC50 [4] [nM]	inhibition at 10 µM [1] [%]	inhibition at 10 µM (IL-6) [%]	inhibition at 10 µM ([3]; SW480, read-out: percent inhibition at 10 μM) [%]
5350	9	92	6500	3370	–	4	Cn1cc(-c2cc(F)c3cnc(NC(=O)[C@H]4CC[C@H](N5CCOCC5)CC4)cc3c2)nn1 [Compound 56, trans-N-(8-Fluoro-6-(1-methyl-1H-1,2,3-triazol-4-yl)isoquinolin-3-yl)-4-morpholinocyclohexane-1-carboxamide]	285	–	–	–
> 10000	16	136	4110	> 10000	–	9	Cc1nnc(-c2cc(F)c3cnc(NC(=O)[C@H]4CC[C@H](N5CCOCC5)CC4)cc3c2)s1 [Compound 57, trans-N-(8-Fluoro-6-(5-methyl-1,3,4-thiadiazol-2-yl)isoquinolin-3-yl)-4-morpholinocyclohexane-1-carboxamide]	1170	40.1	6.1	–
4100	15	35	140	129	–	3	Cc1cn2c(n1)CN(C(=O)Nc1cc3cc(-c4cnc(C)o4)ccc3cn1)CC2 [Compound 59, 2-Methyl-N-(6-(2-methyloxazol-5-yl)isoquinolin-3-yl)-5,6-dihydroimidazo [1,2-a]pyrazine-7(8H)-carboxamide]	297	–	–	–
671	73	1100	4060	> 10000	–	7	Cn1cc(-c2ccc3cnc(NC(=O)N4CCOCC4)cc3c2)nn1 [Compound 60, N-(6-(1-Methyl-1H-1,2,3-triazol-4-yl)isoquinolin-3-yl)morpholine-4-carboxamide]	4860	–	5.7	–
2640	68	1200	3640	> 10000	–	7	Cc1nnc(-c2ccc3cnc(NC(=O)N4CCN(C)CC4)cc3c2)s1 [Compound 62, 4-Methyl-N-(6-(5-methyl-1,3,4-thiadiazol-2-yl)isoquinolin-3-yl)piperazine-1-carboxamide]	1230	–	8.5	–
657	473	3100	2570	4800	–	17	CN(C)C1CCN(C(=O)Nc2cc3cc(-c4cnn(C)c4)ccc3cn2)CC1 [Compound 63, 4-(Dimethylamino)-N-(6-(1-methyl-1H-pyrazol-4-yl)isoquinolin-3-yl) piperidine-1-carboxamide]	1280	–	–	–
434	530	2900	3530	4630	–	8	Cn1cc(-c2ccc3cnc(NC(=O)N4CCOCC4)cc3c2)cn1 [Compound 64, N-(6-(1-Methyl-1H-pyrazol-4-yl)isoquinolin-3-yl)morpholine-4-carboxamide]	683	–	–	–
